{"source": "patent US20240174695A1", "about": "“Spirocycle Containing Bicyclic Heteroaryl Compounds” (Protego Biopharma, Inc., priority 2022, published 2024)"}
{"test_system": "Recombinant amyloidogenic full length light chain protein WIL-FL T46L", "experiment": "Differential Scanning Fluorimetry Assay (thermal shift assay); further: test concentration or dose not given here", "assay_type": "binding", "settings": "Thermal Shift Protein Stability Kit (Biotium), 96-well plates; protein and compounds incubated at RT for 30 min before adding the dye", "description": "Differential Scanning Fluorimetry Assay\nThe stabilization effects the compounds have on the immunoglobulin light chain protein were quantitively measured using a thermal shift assay. Recombinant amyloidogenic full length light chain protein WIL-FL T46L was produced in E. coli, purified, and used in the assay. The Thermal Shift Protein Stability Kit from Biotium was used and the assay was done in 96-well plates following the manufacturer's instructions. The protein and compounds were incubated at RT for 30 min before adding the dye and subjected to the thermal shift assay. The thermal stability (Tm) of each sample was then determined using standard curve fitting methods and compared to vehicle. Data are expressed as temperature shift: [Tm]compound−[Tm]vehicle.\nResults • 0-0.5° C.=* • >0.5-1° C.=** • >1-1.5° C.=*** • >1.5-2.5° C.=**** • >2.5° C.=*****"}
{"smiles": "Cc1cc(N2CCC(C)(c3ccccc3)C2)cn2nc(CCN3CCCC4(CCN(c5nccn6cnnc56)CC4)C3=O)nc12", "note": "(stereo in doubt) [Compound 28, (R)-9-([1,2,4]triazolo[4,3-a]pyrazin-8-yl)-2-(2-(8-methyl-6-(3-methyl-3-phenylpyrrolidin-1-yl)-[1,2,4]triazolo[1,5-a]pyridin-2-yl)ethyl)-2,9-diazaspiro[5.5]undecan-1-one]", "DSF temperature shift: [Tm]compound−[Tm]vehicle": "***** (>2.5° C.=*****)"}
{"smiles": "Cc1cc(N2CCC(C)(c3ccccc3)C2)cn2nc(CCN3CC4(CCN(c5nccn6ccnc56)CC4)NC3=O)nc12", "note": "(stereo not shown) [Compound 1, 8-(Imidazo[1,2-a]pyrazin-8-yl)-3-(2-(8-methyl-6-(3-methyl-3-phenylpyrrolidin-1-yl)-[1,2,4]triazolo[1,5-a]pyridin-2-yl)ethyl)-1,3,8-triazaspiro[4.5]decan-2-one]", "DSF temperature shift: [Tm]compound−[Tm]vehicle": "***** (>2.5° C.=*****)"}
{"smiles": "Cc1cc(N2CC[C@](C)(c3ccccc3)C2)cn2nc(CCN3CC4(CCN(c5nccn6ccnc56)CC4)NC3=O)nc12", "note": "[Compound 2]", "DSF temperature shift: [Tm]compound−[Tm]vehicle": "***** (>2.5° C.=*****)"}
{"smiles": "Cc1cc(N2CC[C@@](C)(c3ccccc3)C2)cn2nc(CCN3CC4(CCN(c5nccn6ccnc56)CC4)NC3=O)nc12", "note": "[Compound 3]", "DSF temperature shift: [Tm]compound−[Tm]vehicle": "***** (>2.5° C.=*****)"}
{"smiles": "Cc1cc(N2CCC(C)(c3ccccc3)C2)cn2nc(CCCN3CC4(CCN(c5nccn6ccnc56)CC4)NC3=O)nc12", "note": "(stereo not shown) [Compound 4]", "DSF temperature shift: [Tm]compound−[Tm]vehicle": "***** (>2.5° C.=*****)"}
{"smiles": "CCC1(c2ccccc2)CCN(c2cc(C)c3nc(CCN4CC5(CCN(c6nccn7ccnc67)CC5)NC4=O)nn3c2)C1", "note": "(stereo not shown) [Compound 5]", "DSF temperature shift: [Tm]compound−[Tm]vehicle": "***** (>2.5° C.=*****)"}
{"smiles": "CC[C@]1(c2ccccc2)CCN(c2cc(C)c3nc(CCN4CC5(CCN(c6nccn7cncc67)CC5)NC4=O)nn3c2)C1", "note": "[Compound 6]", "DSF temperature shift: [Tm]compound−[Tm]vehicle": "***** (>2.5° C.=*****)"}
{"smiles": "CC[C@@]1(c2ccccc2)CCN(c2cc(C)c3nc(CCN4CC5(CCN(c6nccn7cncc67)CC5)NC4=O)nn3c2)C1", "note": "[Compound 7]", "DSF temperature shift: [Tm]compound−[Tm]vehicle": "***** (>2.5° C.=*****)"}
{"smiles": "CC[C@]1(c2ccccc2)CCN(c2cc(C)c3nc(CCN4CC5(CCN(c6nccn7cnnc67)CC5)NC4=O)nn3c2)C1", "note": "[Compound 8]", "DSF temperature shift: [Tm]compound−[Tm]vehicle": "***** (>2.5° C.=*****)"}
{"smiles": "Cc1cc(OCC(C)c2ccccc2)cn2nc(CCN3CC4(CCN(c5nccn6ccnc56)CC4)NC3=O)nc12", "note": "(stereo not shown) [Compound 9, 8-(Imidazo[1,2-a]pyrazin-8-yl)-3-(2-(8-methyl-6-(2-phenylpropoxy)-[1,2,4]triazolo[1,5-a]pyridin-2-yl)ethyl)-1,3,8-triazaspiro[4.5]decan-2-one]", "DSF temperature shift: [Tm]compound−[Tm]vehicle": "***** (>2.5° C.=*****)"}
{"smiles": "Cc1cc(OC[C@H](C)c2ccccc2)cn2nc(CCN3CC4(CCN(c5nccn6ccnc56)CC4)NC3=O)nc12", "note": "[Compound 10]", "DSF temperature shift: [Tm]compound−[Tm]vehicle": "***** (>2.5° C.=*****)"}
{"smiles": "Cc1cc(OC[C@@H](C)c2ccccc2)cn2nc(CCN3CC4(CCN(c5nccn6ccnc56)CC4)NC3=O)nc12", "note": "[Compound 11]", "DSF temperature shift: [Tm]compound−[Tm]vehicle": "**** (>1.5-2.5° C.=****)"}
{"smiles": "Cc1cc(OC[C@@H](C)c2ccccc2)cn2nc(CCN3CC4(CCN(c5nccn6cncc56)CC4)NC3=O)nc12", "note": "[Compound 12]", "DSF temperature shift: [Tm]compound−[Tm]vehicle": "***** (>2.5° C.=*****)"}
{"smiles": "Cc1cc(OCC(C)c2ccccc2)cn2nc(CCN3CC4(CCN(c5nccn6cnnc56)CC4)NC3=O)nc12", "note": "(stereo not shown) [Compound 13]", "DSF temperature shift: [Tm]compound−[Tm]vehicle": "***** (>2.5° C.=*****)"}
{"smiles": "Cc1c(CCN2C(=O)NC3(CCN(c4nccn5ccnc45)CC3)C2=O)nc2cc(O[C@H](C)c3ccccc3)ccn12", "note": "[Compound 14, 8-(Imidazo[1,2-a]pyrazin-8-yl)-3-(2-(3-methyl-7-(1-phenylethoxy)imidazo[1,2-a]pyridin-2-yl)ethyl)-1,3,8-triazaspiro[4.5]decane-2,4-dione]", "DSF temperature shift: [Tm]compound−[Tm]vehicle": "** (>0.5-1° C.=**)"}
{"smiles": "CC(=O)N1CCC(N2CCC3(CC2)CN(CC(O)c2nc4c(C)cc(OCC5(c6ccccc6)CC5)cn4n2)C(=O)N3)CC1", "note": "(stereo not shown) [Compound 15]", "DSF temperature shift: [Tm]compound−[Tm]vehicle": "*** (>1-1.5° C.=***)"}
